Experimental findings from patent US9688661B2, “Substituted pyrroles active as kinases inhibitors” (NERVIANO MEDICAL SCIENCES S.R.L., priority 2012, dated 2017) are described below.

The term IC50 denotes the midpoint of a concentration-inhibition curve.

The target of one test is JAK1 kinase domain (Homo sapiens (Human), UniProt P23458). Nature of the test: Biochemical assay for inhibitors of JAK kinase activity, JAK1. The note with it: preactivated JAK1 kinase domain 2.5 nM, 100 μM ATP. As to the method: (§1) Specific JAK2, JAK1 or JAK3 peptide substrates are trans-phosphorylated by JAK kinases in the presence of ATP traced with 33P-γ-ATP. At the end of the phosphorylation reaction, the unreacted ATP, cold and radioactive, is captured by an excess of dowex ion exchange resin that eventually settles by gravity to the bottom of the reaction plate. The supernatant is subsequently withdrawn and transferred into a counting plate that is then evaluated by β-counting.
JAK1 kinase domain, sequence (P23458 861-1152): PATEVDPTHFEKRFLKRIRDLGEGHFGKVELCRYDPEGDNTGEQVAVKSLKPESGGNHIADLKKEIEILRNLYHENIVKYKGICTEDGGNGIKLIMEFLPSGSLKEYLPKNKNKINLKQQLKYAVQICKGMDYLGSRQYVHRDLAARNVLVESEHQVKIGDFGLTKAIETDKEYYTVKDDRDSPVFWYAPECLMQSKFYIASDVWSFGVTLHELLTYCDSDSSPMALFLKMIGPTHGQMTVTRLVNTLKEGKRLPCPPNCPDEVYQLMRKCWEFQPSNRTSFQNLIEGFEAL
(§2) 500 g of wet resin (SIGMA, custom prepared resin DOWEX 1×8 200-400 mesh, 2.5 Kg) are weighed out and diluted 2 to 1 in 150 mM sodium formate, pH 3.00. The resin is allowed to settle down overnight and then the supernatant is discarded. After three washes as above over a couple of days, the resin is allowed to settle and two volumes (with respect to the resin volume) of 150 mM sodium formate buffer are added.
(§3) Kinase buffer was composed of 50 mM HEPES pH 7.5 containing 10 mM MgCl2, 2.5 mM DTT, 10 μM Na3VO4 and 0.2 mg/mL BSA.
Assays were performed with the JAK1 kinase domain (residues 861-1152 of the 1154 amino acid long full-length sequence, accession number P23458 of UniProtKB/Swiss-Prot database).
The JAK1 kinase domain was preactivated with ATP for 1 h at 28° C. in order to obtain a linear kinetic.
(§4) The peptidic substrate was purchased from American Peptide Company (Sunnyvale, Calif.).
(§5) Data are analyzed by Symix Assay Explorer software (Symix Technologies Inc.) that provides sigmoidal fitting algorithm of the 8 points dilutions curves for IC50 determination.

A further test has as its target JAK2 kinase domain (Homo sapiens (Human), UniProt O60674). Put plainly: Biochemical assay for inhibitors of JAK kinase activity, JAK2. The note with it: JAK2 kinase domain 1 nM, 60 μM ATP. On the procedure: as §1, §2, §3, §4, §5
Test [1] has as its system JAK2 dependent human megakaryoblastic leukemia cell line SET-2. Nature of the test: Cell proliferation assay, SET-2. The note with it: SET-2 cells, 72 hours, CellTiter-Glo. The test is classed as cell-based.
The test system of test [2] is JAK2 independent human chronic myelogenous leukaemia cell line K562. Put plainly: Cell proliferation assay, K562. The test is classed as cell-based. Particulars: K562 cells, 72 hours, CellTiter-Glo, read-out: IC50 K-562. For orientation: Cellular ATP, detected with luciferase, serves as a proxy for viable cell number.
A further test has as its target TYK2 kinase domain (Homo sapiens (Human), UniProt P29597). Nature of the test: Biochemical assay for inhibitors of JAK kinase activity, TYK2. The note with it: TYK2 kinase domain 3 nM, 31 μM ATP. On the procedure: as §1, §2, §3, §4, §5
The subject of test [3] is IL-2 dependent human T lymphoma cell line DERL-7. Nature of the test: Cell proliferation assay, DERL-7. Particulars: DERL-7 cells, 20 ng/ml human IL-2, 72 hours, CellTiter-Glo. The test is classed as cell-based. On the procedure:
the JAK2 dependent human megakaryoblastic leukemia cell line SET-2 (DSMZ, Braunschweig GERMANY), and JAK2 independent human chronic myelogenous leukaemia cell line K562 (ECACC, Wiltshire, UK) were cultured in RPMI-1640 medium-Glutamax (Gibco BRL, Gaithesburg, Md., USA), supplemented with 10% fetal bovine serum (FBS) at 37° C. and 5% CO2. The IL-2 dependent human T lymphoma cell line DERL-7 (DSMZ, Braunschweig GERMANY) was used to test the activity of compounds in cells on JAK1/JAK3 kinases activated by IL-2. The DERL-7 cell lines were cultured in RPMI-1640 medium-Glutamax (Gibco BRL, Gaithesburg, Md., USA), supplemented with 20% FBS and 20 ng/ml of human IL-2 (Sigma-Aldrich, St. Louis, Mo., USA).
Approximately 5×10^3 cells were plated into 384 microtiter plate wells in 50 μL of growth media with different concentrations of inhibitors. The cells were incubated at 37° C. and 5% CO2 for 72 hours, than the plates were processed using CellTiter-Glo assay (Promega, Madison, Wis., USA) following the manufacturer's instruction. Briefly 25 μL/well reagent solution are added to each wells and after 5 minutes shacking micro-plates are read by Envision luminometer (PerkinElmer, Waltham, Mass., USA).
as §5

Read-outs that look alike come from different tables or passages of the source.

TYK2 kinase domain, sequence (P29597 833-1187): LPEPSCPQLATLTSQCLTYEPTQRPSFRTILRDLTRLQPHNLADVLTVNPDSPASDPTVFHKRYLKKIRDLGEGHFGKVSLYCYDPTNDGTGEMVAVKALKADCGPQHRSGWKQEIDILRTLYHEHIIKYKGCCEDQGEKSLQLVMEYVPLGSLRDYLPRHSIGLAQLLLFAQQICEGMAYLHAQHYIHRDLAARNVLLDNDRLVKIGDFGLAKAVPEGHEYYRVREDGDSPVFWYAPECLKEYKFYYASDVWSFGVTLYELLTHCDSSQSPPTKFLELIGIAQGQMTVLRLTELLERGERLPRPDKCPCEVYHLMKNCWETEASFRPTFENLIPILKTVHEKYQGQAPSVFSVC
JAK2 kinase domain, sequence (O60674 849-1124): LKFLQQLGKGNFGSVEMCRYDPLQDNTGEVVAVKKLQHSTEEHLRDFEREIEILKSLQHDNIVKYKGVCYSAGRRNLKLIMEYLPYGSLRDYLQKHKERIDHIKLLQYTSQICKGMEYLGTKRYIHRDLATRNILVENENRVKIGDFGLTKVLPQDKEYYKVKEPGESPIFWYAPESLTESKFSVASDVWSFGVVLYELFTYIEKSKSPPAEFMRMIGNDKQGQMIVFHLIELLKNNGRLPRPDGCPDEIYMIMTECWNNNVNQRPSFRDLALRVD

With `CCc1ccc(C(F)(F)F)cc1-c1[nH]c(-c2cc(NC)ncn2)cc1C(N)=O` [compd 219, 2-[2-Ethyl-5-(trifluoromethyl)phenyl]-5-[6-(methylamino)pyrimidin-4-yl]-1H-pyrrole-3-carboxamide], the IC50 on JAK1 kinase domain was 14 nM; on JAK2 kinase domain, 4 nM; in test [1] it was 270 nM; in test [2], more than 10000 nM; against TYK2 kinase domain, 46 nM; in test [3] (DERL7), 392 nM.
Regarding `CCc1ccc(C(F)(F)F)cc1-c1[nH]c(-c2cc(N)ncn2)cc1C(=O)NC` [compd 321, 5-(6-Aminopyrimidin-4-yl)-2-[2-ethyl-5-(trifluoromethyl)phenyl]-N-methyl-1H-pyrrole-3-carboxamide], the IC50 on JAK1 kinase domain is 9 nM; at JAK2 kinase domain it was 3 nM; in test [1] it was 250 nM; in test [2] it was more than 10000 nM; at TYK2 kinase domain, 38 nM; in test [3] (DERL7) it was 548 nM.
Consider `CCc1ccc(Cl)cc1-c1[nH]c(-c2cc(NC)ncn2)cc1C#N` [compd 10, 2-(5-Chloro-2-ethylphenyl)-5-[6-(methylamino)pyrimidin-4-yl]-H-pyrrole-3-carbonitrile], for which the IC50 in test [3] (read-out: DERL7 IC50) was 780 nM.
On to `Cc1ccc(Cl)cc1-n1cc(-c2ncnc3[nH]ccc23)cc1C(N)=O` [compd 229, 1-(5-Chloro-2-methylphenyl)-4-(7H-pyrrolo[2,3-d]pyrimidin-4-yl)-1H-pyrrole-2-carboxamide], for which the IC50 at JAK1 kinase domain is 3 nM; against JAK2 kinase domain, 1 nM; in test [1], 80 nM; in test [2] it was more than 10000 nM; against TYK2 kinase domain, 2 nM; in test [3] (DERL7), 463 nM.
Turning to `Cc1ccc(Cl)cc1-n1cc(-c2ncnc3c2CCN3)cc1C(N)=O` [compd 234, 1-(5-Chloro-2-methylphenyl)-4-(6,7-dihydro-5H-pyrrolo[2,3-d]pyrimidin-4-yl)-1H-pyrrole-2-carboxamide], the IC50 at JAK1 kinase domain is 8 nM; against JAK2 kinase domain, 6 nM; in test [1] it was 260 nM; in test [2], more than 10000 nM; against TYK2 kinase domain it was 8 nM; in test [3] (DERL7) it was 208 nM.
Regarding `CCc1ccc(Cl)cc1-c1[nH]c(-c2cc(N)ncn2)cc1C(N)=O` [compd 197, 5-(6-Aminopyrimidin-4-yl)-2-(5-chloro-2-ethylphenyl)-1H-pyrrole-3-carboxamide], the IC50 at JAK1 kinase domain is 8 nM; against JAK2 kinase domain, 1 nM; in test [1], 150 nM; in test [2], more than 10000 nM; at TYK2 kinase domain, 10 nM; in test [3] (DERL7), 257 nM.
Consider `CCc1ccc(Cl)cc1-n1cc(-c2cc(NC)ncn2)cc1C(N)=O` [compd 236, 1-(5-Chloro-2-ethylphenyl)-4-[6-(methylamino)pyrimidin-4-yl]-1H-pyrrole-2-carboxamide], for which the IC50 against JAK1 kinase domain is 93 nM; against JAK2 kinase domain it was 12 nM; in test [1], 500 nM; in test [2] it was more than 10000 nM; against TYK2 kinase domain, 48 nM.
For `Cc1ccc(Cl)cc1-c1cc(-c2ncnc3[nH]ccc23)[nH]c1C(N)=O` [compd 123, 3-(5-Chloro-2-methylphenyl)-5-(7H-pyrrolo[2,3-d]pyrimidin-4-yl)-1H-pyrrole-2-carboxamide] the same measures were 33 nM, 5 nM, 460 nM, 3760 nM and 23 nM.
Consider `CCc1ccc(C(F)(F)F)cc1-c1cc(-c2ncnc3[nH]ccc23)[nH]c1C(=O)NC` [compd 131, 3-[2-Ethyl-5-(trifluoromethyl)phenyl]-N-methyl-5-(7H-pyrrolo[2,3-d]pyrimidin-4-yl)-1H-pyrrole-2-carboxamide], for which the IC50 is 25 nM against JAK1 kinase domain; 9 nM against JAK2 kinase domain; 480 nM in test [1]; 2800 nM in test [2]; 87 nM against TYK2 kinase domain.
As for `CCc1ccc(C(F)(F)F)cc1-c1[nH]c(-c2cc(NC)ncn2)cc1C(=O)NC` [compd 322, 2-[2-Ethyl-5-(trifluoromethyl)phenyl]-N-methyl-5-[6-(methylamino)pyrimidin-4-yl]-1H-pyrrole-3-carboxamide], the IC50 is 13 nM at JAK1 kinase domain; 4 nM against JAK2 kinase domain; 220 nM in test [1]; 2800 nM in test [2]; 246 nM in test [3] (DERL7).
As to `Cc1ccc(Cl)cc1-n1cc(-c2ncnc3[nH]ncc23)cc1C(N)=O` [compd 232, 1-(5-Chloro-2-methylphenyl)-4-(1H-pyrazolo[3,4-d]pyrimidin-4-yl)-1H-pyrrole-2-carboxamide], the concentration for half-maximal inhibition (IC50) was 315 nM at JAK1 kinase domain; 33 nM against JAK2 kinase domain; 1680 nM in test [1]; more than 10000 nM in test [2]; 69 nM against TYK2 kinase domain.
For the molecule `CCc1ccc(Cl)cc1-n1cc(-c2ncnc3[nH]ccc23)cc1C(N)=O` [compd 237, 1-(5-Chloro-2-ethylphenyl)-4-(7H-pyrrolo[2,3-d]pyrimidin-4-yl)-1H-pyrrole-2-carboxamide], the IC50 is 1 nM against JAK2 kinase domain, 30 nM in test [1], more than 10000 nM in test [2] and 18 nM in test [3] (DERL7).
On to `Cc1ccc(Cl)cc1-n1cc(-c2ncnc3[nH]ccc23)cc1C#N` [compd 63, 1-(5-Chloro-2-methylphenyl)-4-(7H-pyrrolo[2,3-d]pyrimidin-4-yl)-1H-pyrrole-2-carbonitrile], for which the IC50 against JAK1 kinase domain stood at 15 nM; on JAK2 kinase domain, 4 nM; in test [1], 1380 nM; in test [2] it was 1890 nM; against TYK2 kinase domain, 13 nM.
For `N#Cc1cc(-c2ncnc3[nH]ccc23)cn1-c1cc(C(F)(F)F)ccc1Cl` [compd 72, 1-[2-Chloro-5-(trifluoromethyl)phenyl]-4-(7H-pyrrolo[2,3-d]pyrimidin-4-yl)-1H-pyrrole-2-carbonitrile] the same measures were 17 nM, 7 nM, 510 nM, 6610 nM and 38 nM.
For `CNC(=O)c1[nH]c(-c2ncnc3[nH]ccc23)cc1-c1cc(Cl)ccc1C` [compd 129, 3-(5-Chloro-2-methylphenyl)-N-methyl-5-(7H-pyrrolo[2,3-d]pyrimidin-4-yl)-1H-pyrrole-2-carboxamide] the same measures were 38 nM, 9 nM, 690 nM, more than 10000 nM and 70 nM.
In the case of `CNc1cc(-c2cc(C(N)=O)c(-c3cc(Cl)ccc3C)[nH]2)ncn1` [compd 190, 2-(5-Chloro-2-methylphenyl)-5-[6-(methylamino)pyrimidin-4-yl]-1H-pyrrole-3-carboxamide], the IC50 is 52 nM at JAK1 kinase domain; 22 nM on JAK2 kinase domain; 750 nM in test [1]; more than 10000 nM in test [2]; 94 nM at TYK2 kinase domain.
For `CCc1ccc(C(F)(F)F)cc1-n1cc(-c2cc(N)ncn2)cc1C(N)=O` [compd 256, 4-(6-Aminopyrimidin-4-yl)-1-[2-ethyl-5-(trifluoromethyl)phenyl]-1H-pyrrole-2-carboxamide], in that order: 53 nM, 6 nM, 620 nM, more than 10000 nM and 31 nM.
For `Cc1ccc(Cl)cc1-c1[nH]c(-c2ccnc3[nH]ccc23)cc1C(N)=O` [compd 192, 2-(5-Chloro-2-methylphenyl)-5-(1H-pyrrolo[2,3-b]pyridin-4-yl)-1H-pyrrole-3-carboxamide], in that order: 111 nM, 13 nM, 860 nM, more than 10000 nM and 51 nM.
